Results reported in ChEMBL document CHEMBL2331155, “Polycyclic hybrid isoprenoids from a reed rhizosphere soil derived Streptomyces sp. CHQ-64” (J Nat Prod, 2013).
The source made the active and inactive calls. The calls are words filed in the database; no cut-off is given here.

What was measured:
[1] = system: Bel-7402; test: Cytotoxicity against human Bel7402 cells by MTT assay; assay type: functional, cell-based
[2] = system: A549; test: Cytotoxicity against human A549 cells by MTT assay; assay type: functional, cell-based
[3] = system: BGC-823; test: Cytotoxicity against human BGC823 cells by MTT assay; assay type: functional, cell-based
[4] = system: A2780; test: Cytotoxicity against human A2780 cells by MTT assay; assay type: functional, cell-based
[5] = target: T1, DNA topoisomerase 1 (Homo sapiens) (UniProt P11387); test: Binding affinity to topoisomerase 1 (unknown origin)
T1 sequence (whole entry): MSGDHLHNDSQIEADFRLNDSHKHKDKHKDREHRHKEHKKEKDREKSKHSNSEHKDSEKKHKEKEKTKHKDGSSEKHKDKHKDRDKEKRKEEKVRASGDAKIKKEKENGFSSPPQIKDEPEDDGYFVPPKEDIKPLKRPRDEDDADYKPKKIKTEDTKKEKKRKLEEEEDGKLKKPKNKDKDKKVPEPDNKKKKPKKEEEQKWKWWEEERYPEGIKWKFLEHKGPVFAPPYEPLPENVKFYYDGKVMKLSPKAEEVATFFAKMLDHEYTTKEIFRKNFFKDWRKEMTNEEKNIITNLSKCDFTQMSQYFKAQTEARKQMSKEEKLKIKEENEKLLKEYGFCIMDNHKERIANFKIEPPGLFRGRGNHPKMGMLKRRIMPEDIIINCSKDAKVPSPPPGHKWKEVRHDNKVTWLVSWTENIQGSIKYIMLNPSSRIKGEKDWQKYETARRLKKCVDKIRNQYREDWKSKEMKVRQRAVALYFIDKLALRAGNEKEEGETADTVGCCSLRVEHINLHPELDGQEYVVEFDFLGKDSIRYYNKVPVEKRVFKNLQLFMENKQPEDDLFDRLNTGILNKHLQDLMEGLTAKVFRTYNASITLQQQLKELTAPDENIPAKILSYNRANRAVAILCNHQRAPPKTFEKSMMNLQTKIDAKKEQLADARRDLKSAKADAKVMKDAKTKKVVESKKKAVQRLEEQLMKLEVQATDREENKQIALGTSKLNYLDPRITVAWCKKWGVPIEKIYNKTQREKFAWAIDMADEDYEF

[6] = system: HCT-8; test: Cytotoxicity against human HCT8 cells by MTT assay; assay type: functional, cell-based
[7] = organism: Homo sapiens; test: Inhibition of NF-kappaB (unknown origin) expressed in LPS-stimulated Raw 264.7 cells pretreated for 2 hrs measured after 4 hrs of LPS-challenge by luciferase reporter assay; assay type: cell-based
[8] = target: Protein kinase C alpha type (Homo sapiens) (UniProt P17252); test: Binding affinity to PKC alpha (unknown origin)

CC(C)[C@H]1C(=O)N[C@@H](C[C@]23C[C@H]4C(=C[C@H]2N(C=O)c2ccccc23)CC[C@H]2C(C)(C)CCC[C@]42C)C(=O)N1C (mixture of isomers) [INDOTERTINE B]
IC50 [1]: > 10 µM | IC50 [2]: 4.88 µM | IC50 [3]: > 10 µM | IC50 [4]: > 10 µM | Activity [5]: inactive | IC50 [6]: 6.96 µM | inhibition [7]: inactive | Activity [8]: inactive

C=C1CC[C@H]2C(C)(C)CCC[C@]2(C)[C@H]1C[C@@]12C[C@H]3C(=O)N4CCC[C@H]4C(=O)N3[C@@H]1Nc1ccccc12 [DRIMENTINE C]
IC50 [1]: > 10 µM | IC50 [2]: > 10 µM | IC50 [3]: > 10 µM | IC50 [4]: > 10 µM | Activity [5]: inactive | IC50 [6]: > 10 µM | inhibition [7]: inactive | Activity [8]: inactive

C=C1CC[C@H]2C(C)(C)CCC[C@]2(C)[C@H]1C[C@@]12C[C@H]3C(=O)N(C)[C@@H](C(C)C)C(=O)N3[C@@H]1N(C=O)c1ccccc12 [DRIMENTINE H]
IC50 [1]: > 10 µM | IC50 [2]: > 10 µM | IC50 [3]: > 10 µM | IC50 [4]: > 10 µM | Activity [5]: inactive | IC50 [6]: > 10 µM | inhibition [7]: inactive | Activity [8]: inactive

CC(=O)O[C@H]1C(=O)[C@@]2(C)[C@H]([C@H](OC(=O)c3ccccc3)[C@]3(O)C[C@H](OC(=O)[C@H](O)[C@@H](NC(=O)c4ccccc4)c4ccccc4)C(C)=C1C3(C)C)[C@]1(OC(C)=O)CO[C@@H]1C[C@@H]2O [PACLITAXEL]
IC50 [1]: 0.006 µM | IC50 [3]: < 0.001 µM | IC50 [4]: < 0.001 µM
